According to BindingDB's records for doi:10.3109/14756366.2012.723206 (Yanbian University College of Pharmacy, 2013):

These compounds were tested against T1, Tyrosine-protein phosphatase non-receptor type 1 (Homo sapiens, UniProt P18031) (assay: Enzymatic Assay). Conditions: pH 6.5; 30 °C.
T1 sequence (P18031 whole entry): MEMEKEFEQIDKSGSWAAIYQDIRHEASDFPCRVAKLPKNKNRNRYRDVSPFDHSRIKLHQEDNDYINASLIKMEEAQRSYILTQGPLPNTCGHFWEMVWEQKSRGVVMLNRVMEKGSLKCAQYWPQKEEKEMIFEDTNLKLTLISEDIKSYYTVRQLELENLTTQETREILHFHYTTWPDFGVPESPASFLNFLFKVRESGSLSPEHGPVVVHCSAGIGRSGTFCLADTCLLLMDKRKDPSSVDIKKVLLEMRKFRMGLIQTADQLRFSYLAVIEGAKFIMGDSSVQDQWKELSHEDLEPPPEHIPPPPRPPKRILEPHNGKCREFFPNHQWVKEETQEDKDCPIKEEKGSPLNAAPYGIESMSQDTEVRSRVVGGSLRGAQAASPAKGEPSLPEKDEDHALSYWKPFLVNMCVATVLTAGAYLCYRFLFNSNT
Description: Briefly, the enzymatic activity of the PTP1B catalytic domain was determinedat 30°C by monitoring the hydrolysis of pNPP. […] Assays were performed in a total volume of 100 μL containing 50 mmol/L 3-[N-morpholino]propane-sulfonic acid (MOPs), pH = 6.5, 2 mmol/L pNPP, and 30 nmol/L recombinant PTP1B, as well as the indicated concentrations of the inhibitor.

IC50 [µM]	Compound
36.7	O=C1CC(c2ccccc2)Oc2cc(O)cc(O)c21 (stereo not given) [PTP inhibitor, 4l]
4.18	O=C1CC(c2cccc(Cl)c2)Oc2cc(O)cc(O)c21 (stereo not given) [PTP inhibitor, 4e]
3.48	O=C1CC(c2ccc(Br)cc2)Oc2cc(O)cc(O)c21 (stereo not given) [PTP inhibitor, 4j]
2.66	O=C1CC(c2ccc(F)cc2)Oc2cc(O)cc(O)c21 (stereo not given) [PTP inhibitor, 4c]
7.98	O=C1CC(c2cccc(F)c2)Oc2cc(O)cc(O)c21 (stereo not given) [PTP inhibitor, 4b]
14.1	Cc1ccc(C2CC(=O)c3c(O)cc(O)cc3O2)cc1 (stereo not given) [PTP inhibitor, 4m]
9.06	O=C1CC(c2ccccc2F)Oc2cc(O)cc(O)c21 (stereo not given) [PTP inhibitor, 4a]
7.33	O=C1CC(c2cccc(Br)c2)Oc2cc(O)cc(O)c21 (stereo not given) [PTP inhibitor, 4i]
3.6	O=C1CC(c2ccc(Cl)cc2)Oc2cc(O)cc(O)c21 (stereo not given) [PTP inhibitor, 4f]
2.37	O=C1CC(c2cccc(C(F)(F)F)c2)Oc2cc(O)cc(O)c21 (stereo not given) [PTP inhibitor, 4k]
4.9	O=C1CC(c2ccccc2Br)Oc2cc(O)cc(O)c21 (stereo not given) [PTP inhibitor, 4h]
10.2	O=C1CC(c2ccccc2Cl)Oc2cc(O)cc(O)c21 (stereo not given) [PTP inhibitor, 4d]
2.4	O=C1CC(c2ccc(Cl)cc2Cl)Oc2cc(O)cc(O)c21 (stereo not given) [PTP inhibitor, 4g]

The compounds below were run against T2, M-phase inducer phosphatase 2 (Homo sapiens, UniProt P30305) (assay: Enzymatic Assay). Conditions: pH 6.5; 30 °C.
T2 sequence (P30305 whole entry): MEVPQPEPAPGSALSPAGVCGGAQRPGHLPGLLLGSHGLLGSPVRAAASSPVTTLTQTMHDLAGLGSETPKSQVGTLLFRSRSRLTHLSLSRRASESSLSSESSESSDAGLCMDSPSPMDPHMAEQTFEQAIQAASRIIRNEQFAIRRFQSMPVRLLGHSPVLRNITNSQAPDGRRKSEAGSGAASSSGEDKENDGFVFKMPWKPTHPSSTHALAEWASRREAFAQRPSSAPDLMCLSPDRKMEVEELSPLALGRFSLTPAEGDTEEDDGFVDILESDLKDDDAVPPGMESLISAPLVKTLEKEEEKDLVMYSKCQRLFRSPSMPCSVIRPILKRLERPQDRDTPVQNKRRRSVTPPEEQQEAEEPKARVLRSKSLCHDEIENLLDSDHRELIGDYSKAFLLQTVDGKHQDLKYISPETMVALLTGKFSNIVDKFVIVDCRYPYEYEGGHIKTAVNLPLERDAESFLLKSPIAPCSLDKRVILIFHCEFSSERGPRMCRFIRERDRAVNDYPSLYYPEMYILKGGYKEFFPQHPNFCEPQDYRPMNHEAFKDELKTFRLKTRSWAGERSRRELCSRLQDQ

IC50 [µM]	Compound
8.54	O=C1CC(c2cccc(C(F)(F)F)c2)Oc2cc(O)cc(O)c21 (stereo not given) [PTP inhibitor, 4k]

Each compound was assayed against T3, Tyrosine-protein phosphatase non-receptor type 2 (Homo sapiens, UniProt P17706) (assay: Enzymatic Assay). Conditions: pH 6.5; 30 °C.
T3 sequence (P17706 whole entry): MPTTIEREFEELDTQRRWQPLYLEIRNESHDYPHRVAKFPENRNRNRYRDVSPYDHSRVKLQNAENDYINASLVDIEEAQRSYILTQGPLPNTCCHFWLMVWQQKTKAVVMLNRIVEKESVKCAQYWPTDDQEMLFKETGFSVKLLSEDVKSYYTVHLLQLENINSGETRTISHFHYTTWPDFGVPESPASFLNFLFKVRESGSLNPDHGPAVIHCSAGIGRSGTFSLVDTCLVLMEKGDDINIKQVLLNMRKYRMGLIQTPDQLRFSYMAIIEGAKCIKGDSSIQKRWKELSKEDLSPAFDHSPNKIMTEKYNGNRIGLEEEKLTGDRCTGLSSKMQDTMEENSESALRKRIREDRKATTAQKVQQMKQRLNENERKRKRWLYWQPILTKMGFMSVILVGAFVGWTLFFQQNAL

IC50 [µM]	Compound
8.82	O=C1CC(c2cccc(C(F)(F)F)c2)Oc2cc(O)cc(O)c21 (stereo not given) [PTP inhibitor, 4k]
